Where two headings read alike, the source gives them in different places.
Test system: human immunodeficiency virus type 1 (HIV-1)
Assay: microbe, parasite or virus in culture
Assay type: cell-based
[1] = Human immunodeficiency virus 1, HeLa, 48 h, HIV-1 luciferase reporter, HeLa cells, 48 hours after infection
[2] = Human immunodeficiency virus 1, HeLa, HIV-1 luciferase reporter, HeLa cells
[3] = Human immunodeficiency virus 1, read-out: Rank, rank of EC50, HIV-1 luciferase reporter

Compound | EC50 [1] | EC50 [2] | EC50 [3]
CC(C)[C@@H](CO)n1cc(C(=O)O)c(=O)c2cc(Cc3cccc(Cl)c3)ncc21 [Example 5C, 6-(3-Chloro-benzyl)-1-((S)-1-hydroxymethyl-2-methyl-propyl)-4-oxo-1,4-dihydro-[1,7]naphthyridine-3-carboxylic acid] | > 100 nM |  | 
COc1nc(Cc2cccc(Cl)c2F)cc2c(=O)c(C(=O)O)cn([C@H](CO)C(C)C)c12 [Example 5D, 6-(3-Chloro-2-fluoro-benzyl)-1-((S)-1-hydroxymethyl-2-methyl-propyl)-8-methoxy-4-oxo-1,4-dihydro-1,7-naphthyridine-3-carboxylic acid] | > 100 nM |  | 
CC(C)[C@H]1COc2nc(Cc3cccc(Cl)c3F)cc3c(=O)c(C(=O)O)cn1c23 [Example 5E, (S)-8-(3-chloro-2-fluoro-benzyl)-3-isopropyl-6-oxo-2,3-dihydro-6H-1-oxa-3a,9-diaza-phenalene-5-carboxylic acid] | > 100 nM |  | 
CC[C@@H](CO)n1cc(C(=O)O)c(=O)c2cc(Cc3cccc(Cl)c3F)ncc21 [Example 5G] | > 100 nM |  | 
CCC(C)C(CO)n1cc(C(=O)O)c(=O)c2cc(Cc3cccc(Cl)c3F)ncc21 (stereo not drawn) [Example 5H] | 10 to 100 nM |  | 
CCC[C@@H](CO)n1cc(C(=O)O)c(=O)c2cc(Cc3cccc(Cl)c3F)ncc21 [Example 5I] | > 100 nM |  | 
CCCC[C@@H](CO)n1cc(C(=O)O)c(=O)c2cc(Cc3cccc(Cl)c3F)ncc21 [Example 5J] | > 100 nM |  | 
C[C@H](CO)n1cc(C(=O)O)c(=O)c2cc(Cc3cccc(Cl)c3F)ncc21 [Example 5K] | > 100 nM |  | 
O=C(O)c1cn(C(CO)CO)c2cnc(Cc3cccc(Cl)c3F)cc2c1=O [Example 5L] | > 100 nM |  | 
O=C(O)c1cn([C@H](CO)C2CCCCC2)c2cnc(Cc3cccc(Cl)c3F)cc2c1=O [Example 5M] | 10 to 100 nM |  | 
O=C(O)c1cn([C@H](CO)CC2CCCCC2)c2cnc(Cc3cccc(Cl)c3F)cc2c1=O [Example 5N] | > 100 nM |  | 
O=C(O)c1cn(C[C@H](O)c2ccccc2)c2cnc(Cc3cccc(Cl)c3F)cc2c1=O [Example 5O] | > 100 nM |  | 
O=C(O)c1cn([C@@H](CO)c2ccccc2)c2cnc(Cc3cccc(Cl)c3F)cc2c1=O [Example 5P] | > 100 nM |  | 
CC(C)[C@@H](CO)n1cc(C(=O)O)c(=O)c2cc(Cc3ccc(Cl)c(Cl)c3)ncc21 [Example 5Q] | 10 to 100 nM |  | 
CC(C)[C@@H](CO)n1cc(C(=O)O)c(=O)c2cc(Cc3cccc(Cl)c3F)nnc21 [Example 6, 3-(3-chloro-2-fluorobenzyl)-8-(1-hydroxy-3-methylbutan-2-yl)-5-oxo-5,8-dihydropyrido[2,3-c]pyridazine-6-carboxylic acid] | > 100 nM |  | 
CCCn1cc(C(=O)OC(=O)c2ccccc2)c(=O)c2c(N)nc(SC)nc21 [Example 7A] | > 100 nM |  | 
CCCn1cc(C(=O)O)c(=O)c2c(N)nc(SC)nc21 [Example 7B] | > 100 nM |  | 
CCCn1cc(C(=O)NN)c(=O)c2c(N)nc(SC)nc21 [Example 7C] | > 100 nM |  | 
CCCn1cc(C(=O)OC(=O)c2ccccc2)c(=O)c2c(NC(C)=O)nc(SC)nc21 [Example 7D] | > 100 nM |  | 
CC(C)[C@@H](CO)n1cc(C(=O)O)c(=O)c2nc(Cc3cccc(Cl)c3F)ccc21 [Example 8A, 6-(3-Chloro-2-fluoro-benzyl)-1-((S)-1-hydroxymethyl-2-methyl-propyl)-4-oxo-1,4-dihydro-[1,5]naphthyridine-3-carboxylic acid] | > 100 nM |  | 
CC(C)[C@@H](CO)n1cc(C(=O)O)c(=O)c2nc(Cc3ccc(F)c(F)c3)ccc21 [Example 8B, 6-(3,4-Difluoro-benzyl)-1-((S)-1-hydroxymethyl-2-methyl-propyl)-4-oxo-1,4-dihydro-[1.5]naphthyridine-3-carboxylic acid] | > 100 nM |  | 
CC(C)[C@@H](CO)n1cc(C(=O)O)c(=O)c2nc(Cc3cccc(Cl)c3)ccc21 [Example 8C, 6-(3-Chloro-benzyl)-1-((S)-1-hydroxymethyl-2-methyl-propyl)-4-oxo-1,4-dihydro-[1,5]naphthyridine-3-carboxylic acid] | > 100 nM |  | 
COc1cc2c(nc1Cc1cccc(Cl)c1F)c(=O)c(C(=O)O)cn2[C@H](CO)C(C)C [Example 8D, 6-(3-Chloro-2-fluoro-benzyl)-1-((S)-1-hydroxymethyl-2-methyl-propyl)-7-methoxy-4-oxo-1,4-dihydro-[1.5]naphthyridine-3-carboxylic acid] | > 100 nM |  | 
O=C(O)c1c[nH]c2cnc(Cc3cccc(Cl)c3)nc2c1=O [Example 10A, 2-(3-chlorobenzyl)-8-oxo-5,8-dihydropyrido[3,2-d]pyrimidine-7-carboxylic acid] | > 100 nM |  | 
CC(C)[C@@H](CO)n1cc(C(=O)O)c(=O)c2nc(Cc3cccc(Cl)c3F)c(O)nc21 [Example 11A, (S)-2-(3-chloro-2-fluorobenzyl)-3-hydroxy-5-(1-hydroxy-3-methylbutan-2-yl)-8-oxo-5,8-dihydropyrido[2,3-b]pyrazine-7-carboxylic acid] | > 100 nM |  | 
COc1nc2c(cc1CNc1c(F)cc(F)cc1F)c(=O)c(C(=O)O)cn2[C@H](CO)C(C)C [Example 12A, (S)-1-(1-hydroxy-3-methylbutan-2-yl)-7-methoxy-4-oxo-6-((2,4,6-trifluorophenylamino)methyl)-1,4-dihydro-1,8-naphthyridine-3-carboxylic acid] | > 100 nM |  | 
COc1nc2c(cc1CNc1ccc(F)cc1F)c(=O)c(C(=O)O)cn2[C@H](CO)C(C)C [Example 12B] | > 100 nM |  | 

Compound | EC50 [1] | EC50 [2] | EC50 [3]
COc1nc2c(cc1CNc1ccc(F)cc1)c(=O)c(C(=O)O)cn2[C@H](CO)C(C)C [Example 12D] | > 100 nM |  | 
COc1nc2c(cc1CNc1cccc3c1CCCC3)c(=O)c(C(=O)O)cn2[C@H](CO)C(C)C [Example 12E] | > 100 nM |  | 
COc1nc2c(cc1CNC1CCCc3ccccc31)c(=O)c(C(=O)O)cn2[C@H](CO)C(C)C (stereo partly drawn) [Example 12F] | > 100 nM |  | 
COc1nc2c(cc1CNCc1c(F)cc(F)cc1F)c(=O)c(C(=O)O)cn2[C@H](CO)C(C)C [Example 12G] | > 100 nM |  | 
COc1nc2c(cc1CN1CCc3ccccc3C1)c(=O)c(C(=O)O)cn2[C@H](CO)C(C)C [Example 12H] | > 100 nM |  | 
COc1cc2c(cc1CNc1ccc(F)cc1)c(=O)c(C(=O)O)cn2[C@H](CO)C(C)C [Example 13A, (S)-6-((4-fluorophenylamino)methyl)-1-(1-hydroxy-3-methylbutan-2-yl)-7-methoxy-4-oxo-1,4-dihydroquinoline-3-carboxylic acid] | > 100 nM |  | 
COc1nc2c(cc1COc1c(F)cc(F)cc1F)c(=O)c(C(=O)O)cn2[C@H](CO)C(C)C [Example 14A, (S)-1-(1-hydroxy-3-methylbutan-2-yl)-7-methoxy-4-oxo-6-((2,4,6-trifluorophenoxy)methyl)-1,4-dihydro-1,8-naphthyridine-3-carboxylic acid] | > 100 nM | > 2500 nM | > 100 nM
COc1nc2c(cc1COc1ccc(F)cc1F)c(=O)c(C(=O)O)cn2[C@H](CO)C(C)C [Example 14B] | > 100 nM | > 2500 nM | > 100 nM
COc1cc2c(cc1COc1ccc(F)cc1)c(=O)c(C(=O)O)cn2[C@H](CO)C(C)C [Example 15A, (S)-6-((4-fluorophenoxy)methyl)-1-(1-hydroxy-3-methylbutan-2-yl)-7-methoxy-4-oxo-1,4-dihydroquinoline-3-carboxylic acid] | > 100 nM |  | 
CC(C)[C@@H](CO)n1cc(C(=O)O)c(=O)c2cc(Nc3cccc(Cl)c3F)ncc21 [Example 16A, (S)-6-(3-chloro-2-fluorophenylamino)-1-(1-hydroxy-3-methylbutan-2-yl)-4-oxo-1,4-dihydro-1,7-naphthyridine-3-carboxylic acid] | > 100 nM |  | 
COc1nc2c(cc1-c1ccc(F)cc1)c(=O)c(C(=O)O)cn2[C@H](CO)C(C)C [Example 17A] | > 100 nM |  | 
COc1nc2c(cc1-c1ccc(Cl)c(F)c1)c(=O)c(C(=O)O)cn2[C@H](CO)C(C)C [Example 17B] | > 100 nM |  | 
COc1nc2c(cc1-c1cccc(Cl)c1F)c(=O)c(C(=O)O)cn2[C@H](CO)C(C)C [Example 17C] | > 100 nM |  | 
COc1nc2c(cc1-c1ccc(F)c(Cl)c1)c(=O)c(C(=O)O)cn2[C@H](CO)C(C)C [Example 17D] | > 100 nM |  | 
COc1nc2c(cc1-c1ccc(F)cc1F)c(=O)c(C(=O)O)cn2[C@H](CO)C(C)C [Example 17E] | > 100 nM |  | 
COc1nc2c(cc1-c1cccc(C#N)c1)c(=O)c(C(=O)O)cn2[C@H](CO)C(C)C [Example 17F] | > 100 nM |  | 
COc1nc2c(cc1-c1ccncc1)c(=O)c(C(=O)O)cn2[C@H](CO)C(C)C [Example 17G] | > 100 nM |  | 
COc1ccc(-c2cc3c(=O)c(C(=O)O)cn([C@H](CO)C(C)C)c3nc2OC)cn1 [Example 17H] | > 100 nM |  | 
COc1nc2c(cc1-c1cccc3ccccc13)c(=O)c(C(=O)O)cn2[C@H](CO)C(C)C [Example 17I] | > 100 nM |  | 
COc1nc2c(cc1-c1ccc(OCc3ccccc3)c(F)c1)c(=O)c(C(=O)O)cn2[C@H](CO)C(C)C [Example 17J] | > 100 nM |  | 
COc1nc2c(cc1-c1ccccc1OCc1ccccc1)c(=O)c(C(=O)O)cn2[C@H](CO)C(C)C [Example 17K] | > 100 nM |  | 
COc1nc2c(cc1-c1cccc(OCc3ccccc3)c1)c(=O)c(C(=O)O)cn2[C@H](CO)C(C)C [Example 17L] | > 100 nM |  | 
COc1nc2c(cc1N1CCc3cc(F)ccc3C1)c(=O)c(C(=O)O)cn2[C@H](CO)C(C)C [Example 17M] | > 100 nM |  | 
COc1nc2c(cc1N1CCc3ccc(F)cc3C1)c(=O)c(C(=O)O)cn2[C@H](CO)C(C)C [Example 17N] | > 100 nM |  | 
COc1nc2c(cc1N1CCCc3ccccc31)c(=O)c(C(=O)O)cn2[C@H](CO)C(C)C [Example 17O] | > 100 nM |  | 
COc1cc2c(cc1CCc1ccc(F)cc1F)c(=O)c(C(=O)O)cn2[C@H](CO)C(C)(C)C [Example 18A, 6-[2-(2,4-Difluoro-phenyl)-ethyl]-1-((S)-1-hydroxymethyl-2,2-dimethyl-propyl)-7-methoxy-4-oxo-1,4-dihydro-quinoline-3-carboxylic acid] | > 100 nM |  | 

Source: patent publication US20110166123A1, “NOVEL COMPOSITIONS AND METHODS OF USE” (priority 2008, published 2011)
